What was measured:
[1] = system: patient tumor tissue samples from two locations; assay: Viability of samples from two locations of the same patient tumor (Example 6); type: cell-based; conditions: 0, 3, 5, 9, and 12 days in vitro
Method: Tumor tissue samples from two locations of the same patient tumor are obtained and cultured as described in Example 1. Each sample is treated with Cisplatin (Cis), Doxorubicin (Dox) or Paclitaxel (Taxol). Viability measurements are obtained at 0, 3, 5, 9, and 12 days in vitro.

[2] = system: BR0851 TNBC PDX tumor; assay: Cell-Titer Blue viability of BR0851 TNBC PDX tumor slices; type: cell-based, human; conditions: for sensitivity by viability assay readings: 12 days ex vivo compared to 0 div; for response profile of tumor slices: by 13 div, long-term exposure
[3] = system: BR0851 TNBC PDX slices; assay: Immunohistochemical analysis of BR0851 TNBC PDX slices; type: cell-based, human; conditions: BR0851 slices at 13 div; for overall cell numbers (immunohistochemical analysis): compared with vehicle
[4] = system: human metastatic colorectal cancer (mCRC) biopsy core; assay: CTB viability of human mCRC biopsy core slices in long-term culture (therapy resistance); type: cell-based; conditions: encorafenib 100 nM, binimetinib 100 nM; 16 days in culture (days 16 and 20)
Method: (§1) 5 μl of Cell-Titer Blue (CTB) (Promega) substrate was added to 1 ml of culture medium and incubated at 37° C. for 15 or 24 hr. 100 μl of media was removed from each sample culture and fluorescence was measured (Ex560/Em590) using Enspire® multimode plate reader (Perkin Elmer®). Background fluorescence of the culture medium was subtracted from each sample reading at each day Immediately following the CTB reading, media was changed and drugs were added to fresh media to continue culture. At desired time points, additional viability measurements were made to collect longitudinal data and conditioned media is collected and analyzed. After the final time point, tissues were fixed in formalin and embedded in paraffin or OCT for histological analyses or lysed in RIPA buffer or Trizol and conditioned media is frozen. To account for variability in tissue composition of each slice punch, viability readings of each sample was normalized to the respective CTB reading immediately after slicing (0 days ex vivo: 1 dex CTB reading) and relative fold changes in CTB readings at each time point were analyzed.
(§2) Samples were precision cut into […] thick slices using a Vibratome VT1200S (Leica Microsystems). […]

[5] = system: colorectal cancer PDX model (mCRC); assay: Cell-Titer Blue viability of colorectal cancer PDX model (FIG. 2E); type: cell-based, human; conditions: oxaliplatin 0.1, 1, 10 μM; 5-FU 1, 10, 100 μM; days 0, 4, 8 in vitro
[6] = system: CNSTG colon tumor slices; assay: Cell-Titer Blue viability of CNSTG colon PDX tumor slices; type: cell-based, human; conditions: 100 uM
[7] = system: human metastatic colorectal cancer (mCRC) biopsy cores; assay: CTB viability of mCRC biopsy core slices from two patients (immunotherapy response); type: cell-based; conditions: nivolumab 10 μg/mL, encorafenib 100 nM, cetuximab 10 μg/mL; early and late time points
Method: as §1, §2

[8] = system: BR1126 TNBC PDX; conditions: JAX PDX Resource data; cited from earlier work
[9] = system: BR0851 TNBC PDX; conditions: JAX PDX Resource data; cited from earlier work
[10] = system: BR1126 TNBC PDX tumor; assay: Cell-Titer Blue viability of BR1126 TNBC PDX tumor slices; type: cell-based, human
[11] = system: CN0458 colon tumor slices; assay: Cell-Titer Blue viability of CN0458 colon PDX tumor slices; type: cell-based, human; conditions: 100 uM
[12] = compared with vehicle or Cisplatin treated tissues

In the case of `COc1cccc2c1C(=O)c1c(O)c3c(c(O)c1C2=O)C[C@@](O)(C(=O)CO)C[C@@H]3O[C@H]1C[C@H](N)[C@H](O)[C@H](C)O1` [Doxorubicin], the “difference between viability measurements of the two tumor locations” value [1] was “significant difference”, the “sensitivity by viability assay readings” value [2] was “sensitive” and the “response profile of tumor slices” value [2] was “complete response”. The “overall cell numbers (immunohistochemical analysis)” value [3] was “overall reduction in cell numbers”, the necrotic regions [3, 12] was “increase” and the “pyknotic and abnormal nuclei” value [3, 12] was “increase”.

For `Cn1cnc2c(F)c(Nc3ccc(Br)cc3F)c(C(=O)NOCCO)cc21` [binimetinib], the “therapy resistance in long-term culture (viability)” value [4] was “suppressed”.

In the case of `O=C1[O][Pt]2([NH][C@@H]3CCCC[C@H]3[NH]2)[O]C1=O` [oxaliplatin], the cell viability response [5] was “dose and time-dependent response” and the “suppression of viability of CNSTG slices compared with CN0458 slices” value [6] was “more effective”.

With `COC(=O)N[C@@H](C)CNc1nccc(-c2cn(C(C)C)nc2-c2cc(Cl)cc(NS(C)(=O)=O)c2F)n1` [encorafenib] the “therapy resistance in long-term culture (viability)” value [4] was “emergence of encorafenib resistance”.

For nivolumab, the “sensitivity of the two mCRC patient samples (viability)” value [7] was “differential sensitivity”.

In the case of `N.N.[Cl][Pt][Cl]` [Cisplatin], the “in vivo treatment response” value [8] is given as “partial response”, the “in vivo treatment response” value [9] is given as “no response” and the “difference between viability measurements of the two tumor locations” value [1] is given as “significant difference”. The “sensitivity by viability assay readings” value [2] was “insensitive”, the “response profile of tumor slices” value [2] was “progressive disease profile” and the “ex vivo treatment response” value [10] was “partial response”. For the same molecule, the “sensitivity by viability assay readings” value [10] was “sensitive” and the “overall cell numbers (immunohistochemical analysis)” value [3] was “similar”.

In the case of `O=c1[nH]cc(F)c(=O)[nH]1` [5-FU, 5-fluorouracil], the cell viability response [5] was “no reduction in cell viability” and the “suppression of viability of CN0458 slices compared with CNSTG slices” value [11] was “more effective”.

For `CC(=O)O[C@H]1C(=O)[C@@]2(C)[C@H]([C@H](OC(=O)c3ccccc3)[C@]3(O)C[C@H](OC(=O)[C@H](O)[C@@H](NC(=O)c4ccccc4)c4ccccc4)C(C)=C1C3(C)C)[C@]1(OC(C)=O)CO[C@@H]1C[C@@H]2O` [Paclitaxel], the “difference between viability measurements of the two tumor locations” value [1] was “significant difference” and the “sensitivity by viability assay readings” value [10] was “sensitive”.

Reference: patent US20220187281A1, “METHODS AND SYSTEMS FOR EVALUATION OF CELL SAMPLES” (priority 2019, published 2022)
